From ChEMBL document CHEMBL3774330, “Design, synthesis of phenstatin/isocombretastatin-oxindole conjugates as antimitotic agents” (Bioorg Med Chem, 2016)
pIC50: −log10 of the molar value.

Tests used:
HT-29 [1] = assay: Cytotoxicity against human HT-29 cells after 48 hrs by MTT assay; assay type: functional, cell-based; details: HT-29, 48 h
A549 = assay: cells; details: Homo sapiens, A549, 48 h
Description: Cytotoxicity against human A549 cells after 48 hrs by MTT assay

MCF7 = assay: cells; details: Homo sapiens, MCF7, 48 h
Description: Cytotoxicity against human MCF7 cells after 48 hrs by MTT assay

HepG2 = assay: cells; details: Homo sapiens, HepG2, 48 h
Description: Cytotoxicity against human HepG2 cells after 48 hrs by MTT assay

[2] = Cytotoxicity against human DU145 cells after 48 hrs by MTT assay; assay type: functional, cell-based; details: DU-145, 48 h
HT-29 [3] = assay: Induction of apoptosis in human HT-29 cells assessed as early apoptotic cells at 50 nM after 48 hrs by Annexin V-FITC/PI staining based flow cytometry (Rvb=1.30%); assay type: functional
HT-29 [4] = assay: Cell cycle arrest in human HT-29 cells assessed as accumulation at S phase at 10 nM after 48 hrs by propidium iodide staining based flow cytometry (reference value: 3.02%); assay type: functional
HT-29 [5] = assay: Cell cycle arrest in human HT-29 cells assessed as accumulation at S phase at 50 nM after 48 hrs by propidium iodide staining based flow cytometry (reference value: 3.02%); assay type: functional
HT-29 [6] = assay: Induction of apoptosis in human HT-29 cells assessed as early apoptotic cells at 10 nM after 48 hrs by Annexin V-FITC/PI staining based flow cytometry (Rvb=1.30%); assay type: functional
HT-29 [7] = assay: Induction of apoptosis in human HT-29 cells assessed as reduction in mitochondrial membrane potential at 10 nM after 48 hrs by JC-1 staining based flow cytometry (reference value: 94.3%); assay type: functional; set-up: scale not given: the % may be the effect or the level left
Tubulin = Tubulin (Sus scrofa, UniProt P02554+P02550); assay: Inhibition of porcine brain tubulin polymerization after 1 hr by fluorescence assay
HT-29 [8] = assay: Induction of apoptosis in human HT-29 cells assessed as necrotic cells at 50 nM after 48 hrs by Annexin V-FITC/PI staining based flow cytometry (Rvb=0.82%); assay type: functional
HT-29 [9] = assay: Cell cycle arrest in human HT-29 cells assessed as accumulation at sub G1 phase at 10 nM after 48 hrs by propidium iodide staining based flow cytometry (reference value: 1.00%); assay type: functional
HT-29 [10] = assay: Induction of apoptosis in human HT-29 cells assessed as reduction in mitochondrial membrane potential at 50 nM after 48 hrs by JC-1 staining based flow cytometry (reference value: 94.3%); assay type: functional; set-up: scale not given: the % may be the effect or the level left
HT-29 [11] = assay: Cell cycle arrest in human HT-29 cells assessed as accumulation at sub G1 phase at 50 nM after 48 hrs by propidium iodide staining based flow cytometry (reference value: 1.00%); assay type: functional
HT-29 [12] = assay: Cell cycle arrest in human HT-29 cells assessed as accumulation at G0/G1 phase at 50 nM after 48 hrs by propidium iodide staining based flow cytometry (reference value: 83.01%); assay type: functional
HT-29 [13] = assay: Induction of apoptosis in human HT-29 cells assessed as late apoptotic cells at 10 nM after 48 hrs by Annexin V-FITC/PI staining based flow cytometry (Rvb=4.06%); assay type: functional
HT-29 [14] = assay: Induction of apoptosis in human HT-29 cells assessed as viable cells at 10 nM after 48 hrs by Annexin V-FITC/PI staining based flow cytometry (Rvb=93.82%); assay type: functional; details: HT-29, 48 h, read-out: Activity
HT-29 [15] = assay: Induction of apoptosis in human HT-29 cells assessed as late apoptotic cells at 50 nM after 48 hrs by Annexin V-FITC/PI staining based flow cytometry (Rvb=4.06%); assay type: functional
HT-29 [16] = assay: Cell cycle arrest in human HT-29 cells assessed as accumulation at G2/M phase at 50 nM after 48 hrs by propidium iodide staining based flow cytometry (reference value: 12.47%); assay type: functional
HT-29 [17] = assay: Cell cycle arrest in human HT-29 cells assessed as accumulation at G2/M phase at 10 nM after 48 hrs by propidium iodide staining based flow cytometry (reference value: 12.47%); assay type: functional
HT-29 [18] = assay: Induction of apoptosis in human HT-29 cells assessed as necrotic cells at 10 nM after 48 hrs by Annexin V-FITC/PI staining based flow cytometry (Rvb=0.82%); assay type: functional
HT-29 [19] = assay: Cell cycle arrest in human HT-29 cells assessed as accumulation at G0/G1 phase at 10 nM after 48 hrs by propidium iodide staining based flow cytometry (reference value: 83.01%); assay type: functional
HT-29 [20] = assay: Induction of apoptosis in human HT-29 cells assessed as viable cells at 50 nM after 48 hrs by Annexin V-FITC/PI staining based flow cytometry (Rvb=93.82%); assay type: functional; details: HT-29, 48 h, read-out: Activity

COc1ccc(C(=O)c2cc(OC)c(OC)c(OC)c2)cc1/C=C1/C(=O)Nc2ccc(Cl)cc21
pIC50 (HT-29 [1]): 5.49 | pIC50 (A549): 5.02 | pIC50 (MCF7): 4.85 | pIC50 (HepG2): 5.60 | pIC50 [2]: 4.53

C=C(c1ccc(OC)c(/C=C2/C(=O)Nc3ccccc32)c1)c1cc(OC)c(OC)c(OC)c1
pIC50 (HT-29 [1]): 5.19 | pIC50 (A549): 4.94 | pIC50 (MCF7): 4.69 | pIC50 (HepG2): 5.12 | pIC50 [2]: 4.59

COc1ccc(C(=O)c2cc(OC)c(OC)c(OC)c2)cc1/C=C1/C(=O)Nc2cc(Br)ccc21
pIC50 (HT-29 [1]): 5.43 | pIC50 (A549): 5.34 | pIC50 (MCF7): 4.83 | pIC50 (HepG2): 5.40 | pIC50 [2]: 4.92

C=C(c1ccc(OC)c(/C=C2/C(=O)Nc3ccc([N+](=O)[O-])cc32)c1)c1cc(OC)c(OC)c(OC)c1
pIC50 (HT-29 [1]): 5.87 | pIC50 (A549): 5.24 | pIC50 (MCF7): 4.88 | pIC50 (HepG2): 5.43 | pIC50 [2]: 4.71

COc1ccc2c(c1)/C(=C\c1cc(C(=O)c3cc(OC)c(OC)c(OC)c3)ccc1OC)C(=O)N2
Activity (HT-29 [3]): 4.97% | pIC50 (HT-29 [1]): 7.35 | Activity (HT-29 [4]): 4.87% | Activity (HT-29 [5]): 0.91% | pIC50 (A549): 7.10 | Activity (HT-29 [6]): 2.16% | Activity (HT-29 [7]): 87.7% | IC50 (Tubulin): 1.23 µM | Activity (HT-29 [8]): 3.52% | Activity (HT-29 [9]): 0.43% | Activity (HT-29 [10]): 83.1% | Activity (HT-29 [11]): 0.62% | Activity (HT-29 [12]): 48.01% | Activity (HT-29 [13]): 8.34% | pIC50 (MCF7): 6.57 | viability at 0.01 µM (HT-29 [14]): 88.7% | Activity (HT-29 [15]): 18.7% | pIC50 (HepG2): 7.02 | pIC50 [2]: 5.10 | Activity (HT-29 [16]): 49.8% | Activity (HT-29 [17]): 21.69% | Activity (HT-29 [18]): 0.83% | Activity (HT-29 [19]): 73.61% | viability at 0.05 µM (HT-29 [20]): 72.8%

C=C(c1ccc(OC)c(/C=C2/C(=O)Nc3ccc(F)cc32)c1)c1cc(OC)c(OC)c(OC)c1
pIC50 (HT-29 [1]): 7.09 | pIC50 (A549): 5.93 | pIC50 (MCF7): 5.40 | pIC50 (HepG2): 7.08 | pIC50 [2]: 5.50

C=C(c1ccc(OC)c(/C=C2/C(=O)Nc3ccc(Br)cc32)c1)c1cc(OC)c(OC)c(OC)c1
pIC50 (HT-29 [1]): 5.25 | pIC50 (A549): 5.13 | pIC50 (MCF7): 4.74 | pIC50 (HepG2): 5.08 | pIC50 [2]: 4.72

COc1ccc(C(=O)c2cc(OC)c(OC)c(OC)c2)cc1/C=C1/C(=O)Nc2ccccc21
pIC50 (HT-29 [1]): 5.56 | pIC50 (A549): 5.17 | pIC50 (MCF7): 4.97 | pIC50 (HepG2): 5.42 | pIC50 [2]: 4.57

C=C(c1ccc(OC)c(/C=C2/C(=O)Nc3ccc(OC)cc32)c1)c1cc(OC)c(OC)c(OC)c1
pIC50 (HT-29 [1]): 6.97 | pIC50 (A549): 5.83 | pIC50 (MCF7): 5.50 | pIC50 (HepG2): 6.05 | pIC50 [2]: 5.30

C=C(c1ccc(OC)c(/C=C2/C(=O)Nc3cc(Cl)ccc32)c1)c1cc(OC)c(OC)c(OC)c1
pIC50 (HT-29 [1]): 5.64 | pIC50 (A549): 5.13 | pIC50 (MCF7): 4.93 | pIC50 (HepG2): 5.49 | pIC50 [2]: 4.94

C=C(c1ccc(OC)c(/C=C2/C(=O)Nc3ccc(Cl)cc32)c1)c1cc(OC)c(OC)c(OC)c1
pIC50 (HT-29 [1]): 5.37 | pIC50 (A549): 4.96 | pIC50 (MCF7): 4.82 | pIC50 (HepG2): 5.25 | pIC50 [2]: 4.41

COc1ccc(C(=O)c2cc(OC)c(OC)c(OC)c2)cc1/C=C1/C(=O)Nc2ccc(F)cc21
Activity (HT-29 [3]): 5.42% | pIC50 (HT-29 [1]): 7.31 | Activity (HT-29 [4]): 2.47% | Activity (HT-29 [5]): 1.36% | pIC50 (A549): 7.03 | Activity (HT-29 [6]): 2.88% | Activity (HT-29 [7]): 83.8% | IC50 (Tubulin): 1.01 µM | Activity (HT-29 [8]): 2.92% | Activity (HT-29 [9]): 0.35% | Activity (HT-29 [10]): 81% | Activity (HT-29 [11]): 0.18% | Activity (HT-29 [12]): 41.27% | Activity (HT-29 [13]): 9.67% | pIC50 (MCF7): 6.41 | viability at 0.01 µM (HT-29 [14]): 86.5% | Activity (HT-29 [15]): 24.46% | pIC50 (HepG2): 6.73 | pIC50 [2]: 5.01 | Activity (HT-29 [16]): 56.82% | Activity (HT-29 [17]): 47.12% | Activity (HT-29 [18]): 0.98% | Activity (HT-29 [19]): 50.06% | viability at 0.05 µM (HT-29 [20]): 67.2%

COc1ccc(C(=O)c2cc(OC)c(OC)c(OC)c2)cc1/C=C1/C(=O)Nc2ccc(Br)cc21
pIC50 (HT-29 [1]): 5.07 | pIC50 (A549): 5.01 | pIC50 (MCF7): 4.51 | pIC50 (HepG2): 5.09 | pIC50 [2]: 4.72

COc1ccc(C(=O)c2cc(OC)c(OC)c(OC)c2)cc1/C=C1/C(=O)Nc2cc(Cl)ccc21
pIC50 (HT-29 [1]): 4.87 | pIC50 (A549): 4.92 | pIC50 (MCF7): 4.80 | pIC50 (HepG2): 4.80 | pIC50 [2]: 4.49

COc1ccc(C(=O)c2cc(OC)c(OC)c(OC)c2)cc1/C=C1/C(=O)Nc2ccc([N+](=O)[O-])cc21
pIC50 (HT-29 [1]): 5.29 | pIC50 (A549): 5.05 | pIC50 (MCF7): 4.91 | pIC50 (HepG2): 5.16 | pIC50 [2]: 4.45

C=C(c1ccc(OC)c(/C=C2/C(=O)Nc3cc(Br)ccc32)c1)c1cc(OC)c(OC)c(OC)c1
pIC50 (HT-29 [1]): 5.08 | pIC50 (A549): 4.90 | pIC50 (MCF7): 4.68 | pIC50 (HepG2): 4.98 | pIC50 [2]: 4.68

COc1ccc(/C=C\c2cc(OC)c(OC)c(OC)c2)cc1O [COMBRETASTATIN A4]
pIC50 (HT-29 [1]): 7.31 | Activity (HT-29 [4]): 2.62% | pIC50 (A549): 7.29 | Activity (HT-29 [6]): 3.46% | Activity (HT-29 [7]): 84.2% | Activity (HT-29 [9]): 0.16% | Activity (HT-29 [13]): 20.21% | pIC50 (MCF7): 7.34 | viability at 0.01 µM (HT-29 [14]): 73.4% | pIC50 (HepG2): 7.64 | pIC50 [2]: 8.15 | Activity (HT-29 [17]): 45.76% | Activity (HT-29 [18]): 2.93% | Activity (HT-29 [19]): 51.46%
